Data as given in publication PMC3274752 (Cancer discovery, 2011).

Tests used:
[1] = system: Ba/F3 cells expressing DDR2 L63V; type: cell-based; details: Ba/F3 DDR2 L63V grown in 50 nM nilotinib
[2] = system: Ba/F3 cells expressing DDR2 mutations; experiment: Four-day proliferation of IL-3-independent Ba/F3 cells expressing DDR2 mutants; type: cell-based; details: for killing / proliferation of DDR2-transformed Ba/F3 cells: IL-3-independent Ba/F3 cells expressing DDR2 mutations, single agent
[3] = system: SCC lines harboring DDR2 mutations; experiment: Proliferation and viability of SCC lines harboring DDR2 mutations; type: cell-based; details: for inhibition of proliferation: SCC lines harboring DDR2 mutations
[4] = system: NCI-H2286 xenograft tumors; experiment: Xenograft of NCI-H2286 in athymic nude mice; type: in vivo; details: 50 mg/kg oral gavage, two weeks
[5] = system: A549 cell line; experiment: Cell-Titer-Glo proliferation, six days, A549; type: cell-based; details: Homo sapiens, A549, read-out: calculated IC50, proliferation
[6] = system: NCI-H1703 xenograft tumors; experiment: Xenograft of NCI-H1703 in athymic nude mice; type: in vivo; details: 50 mg/kg oral gavage, two weeks
[7] = cited from earlier work
[8] = system: Ba/F3 cells, vector control grown in the presence of IL-3; experiment: Four-day proliferation of control Ba/F3 cells grown in IL-3; type: cell-based; details: Mus musculus, BaF3, 96 h, read-out: mean calculated IC50 for the control
[9] = system: DDR2-mutant HCC-366 cells; details: cited from earlier work
[10] = system: NCI-H1703 SCC cell line; details: NCI-H1703, PDGFRA amplification, positive control
[11] = system: NIH-3T3 cells expressing DDR2 L63V; experiment: Soft agar colony formation, NIH-3T3 expressing DDR2 L63V; type: cell-based; details: single application at the time of plating

SMILES: CN1CCN(CCOc2cc(OC3CCOCC3)c3c(Nc4c(Cl)ccc5c4OCO5)ncnc3c2)CC1 [AZD0530]
- proliferation on addition of AZD0530 to 50 nM nilotinib [1]: marked reduction in proliferation
- killing / proliferation of DDR2-transformed Ba/F3 cells [2]: modest effect on the proliferation

SMILES: Cc1ccc(C(=O)Nc2ccc(CN3CCN(C)CC3)c(C(F)(F)F)c2)cc1C#Cc1cnc2cccnn12 [AP24534]
- inhibition of proliferation [3]: inhibited the proliferation of SCC lines harboring DDR2 mutations
- killing / proliferation of DDR2-transformed Ba/F3 cells [2]: effective in killing

SMILES: Cc1nc(Nc2ncc(C(=O)Nc3c(C)cccc3Cl)s2)cc(N2CCN(CCO)CC2)n1 [dasatinib]
- cellular annexin V staining ([3]; 48 hours after addition of drug, data not shown): increase in cellular annexin V staining
- cell death versus cell cycle arrest by trypan blue exclusion ([3]; DDR2 mutant cell lines): cell death as opposed to cell cycle arrest
- tumor size [4]: decrease in tumor size
- IC50 [5]: 7.4 µM
- tumor size [6]: decrease in tumor size
- toxicity in patients [7]: myelosuppression and the development of pleural and pericardial effusions
- IC50 [8]: 30 µM
- rank of sensitivity among 83 NSCLC cell lines ([9]; HCC-366): most sensitive squamous cell lung cancer line to dasatinib
- sensitivity in proliferation assay [10]: sensitive to both drugs
- IC50 ([2]; Mus musculus, BaF3, 96 h, read-out: mean calculated IC50 for the mutants): 680 nM
- colony formation in soft agar [11]: Colony formation could be inhibited

SMILES: Cc1cn(-c2cc(NC(=O)c3ccc(C)c(Nc4nccc(-c5cccnc5)n4)c3)cc(C(F)(F)F)c2)cn1 [nilotinib]
- inhibition of proliferation [3]: inhibited the proliferation of SCC lines harboring DDR2 mutations
- effect on proliferation at 50 nM ([2]; 50 nM, wild-type Ba/F3 cells or Ba/F3 cells expressing DDR2 mutations): little effect on proliferation
- killing / proliferation of DDR2-transformed Ba/F3 cells [2]: modest activity

SMILES: C#Cc1cccc(Nc2ncnc3cc(OCCOC)c(OCCOC)cc23)c1 [erlotinib]
- sensitivity relative to dasatinib ([3]; HCC-366 and NCI-H2286, initial experiments, data not shown): at least ten-fold less than dasatinib
- GI50 ([9]; DDR2 mutant HCC-366 cell line): 990 nM
